Results reported in patent US20120004268A1, “INSECTICIDAL COMPOSITIONS COMPRISING CYCLIC CARBONYLAMIDINES” (BAYER CROPSCIENCE AG, priority 2010, published 2012).

Experiments:
Assay type in all cases: in vivo
Myzus persicae = assay: Foliar application Myzus persicae / bell peppers (spray test); conditions: spray on infested bell pepper plants, AMS and/or RME each 1000 ppm in spray liquor where named, 6 days
Method: Foliar Application Myzus persicae/Bell Peppers
(§1) To produce a suitable active compound preparation, 1 part by weight of active compound is mixed with the stated amounts of solvent and emulsifier, and the concentrate is diluted with emulsifier-containing water to the desired concentration. For application with ammonium salts and penetrants (rapeseed oil methyl ester 500 EW), these ingredients are each added to the spray liquor in a concentration of 1000 ppm.
Bell pepper plants (Capsicum annuum) heavily infested by the green peach aphid (Myzus persicae) are treated by spraying with the active compound preparation of the desired concentration. After 6 days, the kill in % is determined. 100% means that all aphids have been killed; 0% means that no aphids have been killed.

Aphis gossypii = assay: Foliar application Aphis gossypii / cotton (spray test); conditions: spray on infested cotton plants, 6 days
Method: Foliar Application Aphis gossypii/Cotton
as §1
Cotton plants (Gossypium hirsutum) heavily infested by the cotton aphid (Aphis gossypii) are treated by spraying with the active compound preparation of the desired concentration. After 6 days, the kill in % is determined 100% means that all aphids have been killed; 0% means that no aphids have been killed.

Bemisia tabaci = Bemisia tabaci (BEMITA spray treatment) on cotton leaf discs; conditions: 0.8 ppm active compound; spray on cotton leaf discs infested by whitefly larvae; 7 days
Method: Bemisia tabaci (BEMITA Spray Treatment)
To produce a suitable active compound preparation, 1 part by weight of active compound is mixed with the stated amounts of solvents and emulsifier, and the concentrate is diluted with emulsifier-containing water to the desired concentration.
Discs of cotton leaves (Gossypium hirsutum) infested by whitefly (Bemisia tabaci) larvae are sprayed with an active compound preparation of the desired concentration.
After 7 days, the effects in % is determined 100% means that all whiteflies have been killed; 0% means that none of the whiteflies have been killed.

[1] = 0.8 ppm active compound, AMS and/or RME each 1000 ppm in spray liquor where named

For CN(Cc1ccc(Cl)nc1)C1=NC(=O)OC1 [I-1, 4-[[(6-chloro-3-pyridinyl)methyl]methylamino]-2(5H)-oxazolone], the “Kill in % after 6d” value (Myzus persicae; 0.8 ppm active compound) was 0% and the “Kill in % after 6d” value (Aphis gossypii; [1]) was 35%.
O=C1N=C(N(Cc2ccc(Cl)nc2)C2CC2)CO1 [I-6, 4-[[(6-chloro-3-pyridinyl)methyl]cyclopropylamino]-2(5H)-oxazolone] was tested, and the “Kill in % after 6d” value (Myzus persicae; 4 ppm active compound) was 15%, the “Kill in % after 7d” value (Bemisia tabaci) was 40% and the “Kill in % after 6d” value (Aphis gossypii; [1]) was 0%. The “Kill in % after 6d” value (Aphis gossypii; 4 ppm active compound, RME 1000 ppm in spray liquor where named) was 40%.
